Assay results reported in PubChem BioAssay AID463182 (University of Pittsburgh Molecular Library Screening Center, 2010).
Active and inactive are the calls of the source. No rule for the calls is given here.

Target: Furin (Homo sapiens) (UniProt P09958)
Assay: furin inhibitor potency, dose response, biochemical, fluorescence intensity, IC50 (AID 463182)
Details: purified furin, fluorogenic peptide substrate cleavage

Chain of Furin (Homo sapiens) (P09958 108-714 limits assumed): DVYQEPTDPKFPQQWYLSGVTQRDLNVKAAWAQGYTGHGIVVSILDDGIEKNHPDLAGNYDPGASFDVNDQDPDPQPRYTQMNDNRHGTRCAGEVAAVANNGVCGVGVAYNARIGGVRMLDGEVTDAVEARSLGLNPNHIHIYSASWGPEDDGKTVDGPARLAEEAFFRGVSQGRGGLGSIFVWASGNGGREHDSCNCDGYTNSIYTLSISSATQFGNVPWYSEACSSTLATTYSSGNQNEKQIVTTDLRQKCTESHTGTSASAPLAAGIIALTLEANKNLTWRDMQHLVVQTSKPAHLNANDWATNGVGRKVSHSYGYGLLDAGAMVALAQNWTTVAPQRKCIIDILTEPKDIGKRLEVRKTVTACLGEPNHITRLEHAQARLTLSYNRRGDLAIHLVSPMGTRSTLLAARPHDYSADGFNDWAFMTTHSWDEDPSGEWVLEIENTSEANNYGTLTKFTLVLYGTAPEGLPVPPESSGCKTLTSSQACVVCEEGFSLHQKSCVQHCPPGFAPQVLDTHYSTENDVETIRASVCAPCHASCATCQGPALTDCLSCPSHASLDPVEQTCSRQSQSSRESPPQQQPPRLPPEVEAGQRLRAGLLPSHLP

IC50 | SMILES
> 50 µM (inactive) | CC1(C)CC(=O)C(/C=N/n2cnc3ccccc3c2=O)=C(O)C1
> 50 µM (inactive) | Cc1cccc(/N=C/C2=C(O)CC(C)(C)CC2=O)n1
> 50 µM (inactive) | CC1(C)CC(=O)C(C=Nc2cccnc2)=C(O)C1
